Assay results: publication PMC12274739, “Differential substrate degradation by super-degron: EGFP in wild-type mouse cells, PD-1 requires CRBN humanization” (iScience, 2025)
Where two headings read alike, the source gives them in different places.

What was measured:
EGFP-SD [1] = assay type: cell-based, mouse; settings: for ratio of bottom, mouse vs human cell line: EGFP-SD; for bottom vs top, EGFP-SD: IBR up to 1 μM
EGFP-SD [2] = assay: Degradation of stably expressed EGFP-SD in human cell lines (hESCs, HEK293, Jurkat); assay type: cell-based; settings: for bottom vs top, EGFP-SD: IBR up to 1 μM
mouse PD-1-SD = assay: Linker evaluation of mouse PD-1-SD in Jurkat cells; assay type: cell-based, human; settings: PD-1-SD with a linker, 1 µM iberdomide for 1 day
Description: We used human Jurkat cells as it was difficult to accurately assess exogenous PD-1 expression, as EL4 cells originally expressed mouse PD-1. […] Therefore, the simplest “no linker” construct was adopted for in vivo protein knockdown in mice. Considering that fluorescent proteins affect the degradation efficiency of PD-1,[31] we decided to knock in without a fluorescent protein as a marker. SD was inserted downstream of the endogenous Pdcd1 gene (the gene encoding PD-1) in Crbn^I391V/I391V mice using genome editing (Figures 6A and S5), and double homozygous (Pdcd1^SD/SD/Crbn^I391V/I391V) mice were produced by intercrossing.
Figure S4 Evaluation of linker sequences between PD-1 and super degron tag A Amino acid sequences of various linkers between PD-1 and super degron (SD) tag. Sequences […]
were measured by flow cytometry, and the geometric means of fluorescence intensities (MFI) were calculated. The dots indicate the results of the experiment for each of the three samples.
(1 picture or pasted object on this page, not shown here)

GL-261 = GL-261 orthotopic model, growth in brain by MRI; assay type: in vivo, mouse; settings: Pdcd1SD/SD/CrbnI391V/I391V mice, IBR oral administration
Description: In vivo proliferation of another tumor cell line, GL-261 […], was also examined to confirm the effect of PD-1 reduction other than the MC-38 adenocarcinoma cell line.[34]
GL-261 cells were passaged one day before inoculation and resuspended in HBSS at a concentration of 1 × 10^7 cells/mL. The mice were anesthetized by intraperitoneal injection of a combination of the three drugs described in the previous section and immobilized in a stereotactic frame (RWD Life Science, US). After a midline scalp incision, a small burr hole located 2 mm to the right and 1 mm anterior to the bregma was drilled into the skull (AP:1.0 mm, ML:-2.0 mm). The syringe needle was inserted at a depth of 3.0 mm and then raised 0.4 mm to get to a depth of 2.6 mm. 2 μL of cell (2 x10^4 cells) was injected using a 10 μL syringe (Hamilton, USA) connected to a syringe pump (KD Scientific, US; injection rate: 0.5 μL/min). After injection, the needle was left in place for an additional 5 min to avoid backflow. […]
All the MR experiments were performed at the Medical Research Support Center, Graduate School of Medicine, Kyoto University, Japan. […] The respiratory rate and rectal temperature of the animals were continuously monitored using a dedicated system (Model 1025, MR-compartible Small Animal Monitoring & Gating System; SA Instruments, Inc., NY, USA) and software (PC-SAM V8.04; SA Instruments). […]

[3] = parameters: method as in PMID 32969202; settings: humans, cited from earlier work
EGFP-SD [4] = assay: Degradation of stably expressed EGFP-SD in rat ESCs
[5] = cited from earlier work

O=C1CC[C@H](N2Cc3c(OCc4ccc(CN5CCOCC5)cc4)cccc3C2=O)C(=O)N1 [IBR, iberdomide]
ratio of bottom, mouse vs human cell line (EGFP-SD [1]; EL4 vs Jurkat): 1.804
ratio of bottom, mouse vs human cell line (EGFP-SD [1]; NIH3T3 vs HEK293): 3.605
Bottom, EGFP-SD (EGFP-SD [1]; EL4, stable): 0.04356
DC50 (EGFP-SD [1]; EL4, stable): 0.0755 nM
bottom vs top, EGFP-SD (EGFP-SD [1]; EL4, stable): 0.057
Bottom, EGFP-SD (EGFP-SD [1]; NIH3T3, stable): 0.03706
DC50 (EGFP-SD [1]; NIH3T3, stable): 0.079 nM
bottom vs top, EGFP-SD (EGFP-SD [1]; NIH3T3, stable): 0.049
Bottom, EGFP-SD (EGFP-SD [1]; mouse ESCs, stable): 0.02573
DC50 (EGFP-SD [1]; mouse ESCs, stable): 0.221 nM
bottom vs top, EGFP-SD (EGFP-SD [1]; mouse ESCs, stable): 0.085
level to which EGFP-SD was suppressed (EGFP-SD [1]; mouse wild-type cell lines, IBR approximately 10^−2 μM to 10^−3 μM): 10%
Bottom, EGFP-SD (EGFP-SD [2]; HEK293, stable): 0.01028
DC50 (EGFP-SD [2]; HEK293, stable): 0.00545 nM
bottom vs top, EGFP-SD (EGFP-SD [2]; HEK293, stable): 0.009
Bottom, EGFP-SD (EGFP-SD [2]; Jurkat, stable): 0.02414
DC50 (EGFP-SD [2]; Jurkat, stable): 0.0118 nM
bottom vs top, EGFP-SD (EGFP-SD [2]; Jurkat, stable): 0.024
Bottom, EGFP-SD (EGFP-SD [2]; human ESCs, stable): 0.007522
DC50 (EGFP-SD [2]; human ESCs, stable): 0.00278 nM
bottom vs top, EGFP-SD (EGFP-SD [2]; human ESCs, stable): 0.005
PD-1 expression (mouse PD-1-SD): significantly reduced
proliferation of GL-261 (GL-261): suppressed
IBR present after 24 h, of the maximum concentration ([3]; multiple doses): about 20%
time of serum concentration peak ([3]; oral, single and multiple once-daily doses): 3 h
serum concentration with multiple doses compared to a single dose [3]: doubles
DC50 (EGFP-SD [4]; read-out: DC50, EGFP-SD, stable): 0.14 nM
Bottom, EGFP-SD (EGFP-SD [4]; stable): 0.0497
bottom vs top, EGFP-SD (EGFP-SD [4]; stable, IBR up to 1 μM): 0.083

Nc1cccc2c1C(=O)N(C1CCC(=O)NC1=O)C2=O (stereo not drawn) [POM, pomalidomide]
blood-brain barrier (BBB) passage [5]: passes through the BBB
